Here are results for one molecule from BindingDB's records for doi:10.1021/jm00126a022 (University of South Alabama, 1989).

The experiment has as its target GAR formyltransferase (Lactobacillus casei). The experiment can be described thus: Inhibition of the GAR formyl transferase in lactobacillus casei.

`CC(Cc1ccc(C(=O)NC(CCC(=O)O)C(=O)O)cc1)Cc1cnc2nc(N)[nH]c(=O)c2n1` (stereo unspecified): the IC50 was > 20 µM.
